Measurements taken from patent publication US6723702B2, “Use of relaxin treat diseases related to vasoconstriction” (RAS Medical, Inc., priority 2000, dated 2004).

What was measured:
[1] = tested on: intact, female rats; assay: Chronic infusion of purified porcine RLX or rhRLX: MAP and renal function in conscious rats; assay type: in vivo, rat; details: chronic infusion 4 μg/hour
Excerpt: Long-Evans female rats aged 10-14 weeks were purchased from Harlan Sprague-Dawley (Frederick, Md.). They were fed PROLAB RMH 2000 diet containing 0.48% sodium (PME Feeds Inc., St. Louis, Mo.) and provided water ad libitum. To prepare the rats for experimental procedures, they were trained for several hours in a Plexiglas restraining cage (Braintree Scientific Co., Braintree, Mass.) on at least five different occasions before surgical intervention. These cages afforded sufficient space for grooming of the face and front paws while preventing the rat from turning around. Thus, accurate timed-urine collections and blood samplings were made possible from the chronically implanted bladder and vascular catheters, respectively. Rats failing to habituate to the cage were eliminated from the study (<1%). All animal procedures were approved by the Institutional Animal Care and Use Committee of the Magee-Womens Research Institute.
The details of the surgical procedures have been previously described. See, e.g., Conrad (1984) Kidney Int. 26:24-29; and Danielson and Conrad (1995) J. Clin. Invest. 96:482-490. […] The bladder catheter, a silastic-covered stainless steel cannula, was sewn into the urinary bladder with a purse-string suture and exteriorized through the ventral abdominal wall. This catheter was then plugged allowing the animal to urinate through the urethra while in her home cage. In the ovariectomized and sham ovariectomized animals, the ovaries were first ligated and then excised, or briefly manipulated, respectively, via a small incision made in the lateral abdominal wall immediately after the insertion of vascular and bladder catheters. All surgeries were conducted using aseptic technique. At least a 7-day recovery period was allowed before experimentation.
For chronic infusion of relaxin, an osmotic minipump was inserted subcutaneously (s.c.) in the back of the animal under ether anesthesia. After shaving and cleaning the skin with alcohol and betadine, a small incision was made and the minipump containing either recombinant human relaxin (rhRLX), purified porcine relaxin (RLX), or vehicle was inserted. Then the incision was closed with surgical staples. The model 2001 and 2ML1 osmotic minipumps (Alza Co., Palo Alto, Calif.) were used for the purified porcine RLX and rhRLX, respectively.
At the beginning of each experiment, immediately after opening the arterial catheter and before infusion of fluids, 100 μl of blood was collected into a heparinized tube. […] The hematocrit was also routinely determined on these midpoint blood samples. […] MAP, GFR, ERPF, and ERVR were assessed on days 2 and 5 of the infusion, and 5-12 days after depletion of the 7-day minipump. […] Circulating relaxin concentrations of 20-40 ng/mL have been measured in rats of 12-14 gestational days. […]

[2] = tested on: infarct and peri-infarct areas of the left ventricle; assay: Rat LCAL model: number of venules on H & E sections; assay type: in vivo
Description: Female Sprague Dawley rats, approximately 12-weeks of age were used. Rats were anesthetized by intraperitoneal (i.p.) injection of up to 1 ml/kg ketamine/medetomidine (6:4). Following exteriorization of the heart, the left coronary artery was ligated near its origin with a silk suture. In sham surgery control animals, the suture was placed superficially into the muscle adjacent to the coronary artery. Post-closure EKG's were monitored for S-T segment elevation in LCAL animals to confirm the outcome of ligation. Immediately following cardiac surgery, a primed mini-osmotic pump containing relaxin or vehicle (20 mM acetate, pH 5.0) was aseptically implanted into a subcutaneous (s.c.) pocket on the dorsal interscapular region. Vehicle or relaxin (0.1 mg/kg/day) was delivered as a continuous s.c. infusion for 7 or 21 days to either sham or LCAL animals. Animals were terminated on day 7 or 21, and the peri-infarct regions anterior to the scar in the left ventricle, or equivalent sites on sham surgery animals were harvested.
The number of venules, arterioles and capillaries in the infarct and peri-infarct areas of the left ventricle were quantified by counting individual vessels on H & E (hematoxylin and eosin) stained sections. Numbers of venules, arterioles and capillaries were determined by counting in the area of the infarct, and in the right and left junction areas between the infarcted free wall and viable myocardium. Quantitation of venules and arterioles were obtained as total number of vessels in the entire area in each of 3 H&E stained transverse sections of the heart, i.e. apical, basal and midway between apical and basal levels. Quantitation was performed by a histopathologist blinded to the treatment groups. Venules comprised the observed increases in numbers of collateral vessels post-infarction. All veins counted in high dry fields were summed to yield vessel number per level. Three levels (apical, basal, and middle) were summed for each animal to yield total number of veins. N=4-5 animals per treatment group. […]

[3] = days 2 and 5, rhRLX significant only at day 5

Substance	effect on MAP ([1]; days 2 and 5 (FIG. 1A))	effect on ERPF [1, 3]	effect on ERVR [1, 3]	effect on GFR [1, 3]	number of venules in the infarct region ([2]; day 7, 0.1 mg/kg/day)	number of venules (vessel number) in the infarct region ([2]; day 21, 0.1 mg/kg/day)	number of vessels in analogous area of the left ventricle ([2]; sham surgery)
Porcine RLX: lyophilized, purified porcine relaxin (Sherwood and O'Byrne 1974), dissolved in Ringer's solution	did not significantly change	marked increase	reciprocal reduction	marked increase			
rhRLX: recombinant human relaxin, identical in amino acid sequence to the product of the human H2 gene; A chain of 24, B chain of 29 amino acids					163±8	209±13	did not alter
